This experiment in a line: clinical use of intranasal oxytocin formulations to treat tinnitus (patient reports, Tinnitus Handicap Inventory). It counts as in vivo, human. The source says: In an aspect, this disclosure provides a method for treating tinnitus. The method comprises administering intranasally to an individual a composition comprising or consisting essentially of oxytocin, wherein such administration results in treatment of tinnitus. The effectiveness of treatment of tinnitus may be monitored by quantifying tinnitus, such as by self-evaluation using clinically accepted techniques. An example is the Tinnitus Handicap Inventory (“THI”), a validated and published measurement technique. (Newman et al., Arch Otolaryngol Head Neck Surg, 1996, February 122(2), 143-8). In an embodiment, the improvement in an individual using THI may comprise an improvement of at least 10%. In various embodiments, the improvement may comprise from 10-100%, such as at least 20, 30, 40, 50, 60, 70, 80, 90, 95, or 99%.
This example describes clinical use of the present formulations to treat tinnitus. […] The formulation contained oxytocin, magnesium chloride, citric acid, and sodium citrate in sterile water. […] The dose was then increased to 45 IU (3 sprays of 15 IU) 4 times daily. […] A thickener was then added to the formulation keeping the oxytocin amount the same. […] Their score on the Tinnitus Handicap Inventory reduced from a pretreatment score of 96 (meaning a catastrophic level) to a current score of 14 (meaning mild or no tinnitus). The patient has remained improved over 1 year since initiating therapy. Their current dose is 22.5 IU in each nostril 4 times daily. Since their tinnitus occurs in distinct cycles, at times when tinnitus severity is loudest, they increase the dose to 5 times daily for 2 days. […] Their current handicap inventory is 8.
The dose was increased to 45 IU 4 times daily resulting in a decrease in tinnitus volume by approximately 30%.
In another patient, who developed constant tinnitus after a neck injury one year ago, a dose of 45 IU (22.5 IU in each nostril) 4 times daily was used for 30 days and is still ongoing. It has provided about 15% improvement.
In another patient with constant tinnitus a dose of 30 IU 4 times daily has been started and treatment is ongoing.

[1] abbreviates: fifth patient, constant tinnitus, 30 IU 4 times daily, after 2 weeks.
Where [2] appears, read: first patient, 22.5 IU in each nostril 4 times daily, 5 times daily for 2 days when loudest, past 3 months.

Structures are written as SMILES. Where only a bound is given, the exact number is not on record here.

Consider `CC[C@H](C)[C@@H]1NC(=O)[C@H](Cc2ccc(O)cc2)NC(=O)[C@@H](N)CSSC[C@@H](C(=O)N2CCC[C@H]2C(=O)N[C@@H](CC(C)C)C(=O)NCC(N)=O)NC(=O)[C@H](CC(N)=O)NC(=O)[C@H](CCC(N)=O)NC1=O` [oxytocin, Cys-Tyr-Ile-Gln-Asn-Cys-Pro-Leu-Gly (SEQ ID NO:1)], for which, under setting [1], the “time without noticing the tinnitus” value was “several hours per day without noticing the tinnitus” and the tinnitus intensity result is “tinnitus intensity has lowered”. The “time patient has remained improved since initiating therapy” value (first patient) was “over 1 year”. In addition, under setting [2], the “longest time without tinnitus” value is no more than 10 days and the tinnitus severity result was “reduced tinnitus severity”. In addition, for the setting “first patient, 22.5 IU in each nostril 4 times daily, 5 times daily for 2 days when loudest, pretreatment 96”, the “current handicap inventory (Tinnitus Handicap Inventory)” value was 8. Besides, the “score on the Tinnitus Handicap Inventory” value (first patient, formulation with thickener, pretreatment score 96 (catastrophic level), 14 means mild or no tinnitus) is reported as 14. Also, the tinnitus free period entry (first patient, thickener added, same oxytocin amount (45 IU 4 times daily)) is listed as “several days of tinnitus free period”. The improvement result (fourth patient, constant tinnitus after neck injury, 45 IU (22.5 IU in each nostril) 4 times daily for 30 days) is given as “about 15%”. In addition, the tinnitus volume result (fourth patient, dose raised on occasions to 5 times daily) was “diminished tinnitus volume”. For the same molecule, the relief of tinnitus entry (general statement, lower amounts of oxytocin (under 20 IU per day)) is “did not result in any significant relief”. Also, the “time patient remains improved” value (second patient, 45 IU twice daily) was “more than a year”. For the same molecule, the benefit result (third patient, tinnitus caused by a drug, 30 IU twice daily) is given as “without benefit”. In addition, the “decrease in tinnitus volume” value (third patient, tinnitus caused by a drug, 45 IU 4 times daily) is recorded as “approximately 30%”.

The values above are taken from patent US20210060119A1, “OXYTOCIN COMPOSITIONS FOR TREATMENT OF TINNITUS” (New York University, priority 2019, published 2021).
